Experiments:
[1] = RP-HPLC stability (decomposition) of 20-OR ester prodrugs in PBS pH 7.4; assay type: physicochemical
Description: CPT glycinate fragmentation pattern [m/z(%)] was: 406 (25%), 331 (100%), 303 (30%); CPT ortho lactone fragmentation pattern was: 406 (100%), 388 (40%), 303 (20%). […] HPLC data for each analog studied was consistent with the generation of the novel decomposition products, along with the lactone and carboxylate forms of the parent drug. […] N-methyl CPT glycinate fragmentation pattern [m/z(%)] was: 420 (86%), 331 (100%), 303 (30%); CPT N-methyl ortho lactone fragmentation pattern was: 420 (100%), 402 (50%), 303 (37%). As in the case for the camptothecin glycinate ester, the novel degradation products were generated from the proposed lactam intermediate. Further evidence for proposed degradation products 3 and 4 includes: (1) Glycine carbonyl ^13C isotopic labeling NMR experiment in PBS showing that this carbon exists as a tetrahedral carbon as in 3. (2) Glycine ^15N isotopic labeling NMR experiments showing that 3 and 4 have amide bonds.

[2] = assay type: in vitro ADME, human; conditions: for prodrug decomposition: PBS pH 7.4, human plasma and blood, RP-HPLC
[3] = Stability of free and core-loaded liposomal prodrug in whole blood

With CCC1(OC(=O)CCCN)C(=O)OCc2c1cc1n(c2=O)Cc2cc3ccccc3nc2-1 (stereo not drawn) [R=COCH2CH2CH2NH2, camptothecin 4-aminobutanoate ester] the half-life of decomposition ([1]; buffer, pH 7.4) was 36.7 h.
In the case of CCc1c2c(nc3ccc(O)cc13)-c1cc3c(c(=O)n1C2)COC(=O)C3(CC)OC(=O)CN (stereo not drawn) [SN-38 glycinate ester], the prodrug decomposition [2] is reported as “extensive chemical (i.e. non-enzymatic) decomposition”.
In the case of CC[C@@]1(OC(C)=O)C(=O)OCc2c1cc1n(c2=O)Cc2cc3ccccc3nc2-1 [camptothecin-20(S)-acetate, reference compound], the stability / hydrolysis ([2]; pH 7.4) is reported as “excellent stability”.
In the case of CCC1(OC(=O)CN)C(=O)OCc2c1cc1n(c2=O)Cc2cc3ccccc3nc2-1 [camptothecin-20(S)-glycinate 1, camptothecin-20(S)-glycinate], the decomposition ([1]; 1 μM, PBS (pH 7.4), 37° C., within 3 hours) is reported as roughly 90% and the prodrug decomposition [2] is reported as “extensive chemical (i.e. non-enzymatic) decomposition”.
In the case of DB-67 4-aminobutanoate ester, the “decomposition of free prodrug” value [3] is reported as “extensive”.

From patent US7064202B1 (University of Kentucky Research Foundation, priority 2003, dated 2006)
